Measurements as given in patent publication US10945989B2, “Perinatal treatment with a flavonoid agonist of the TrkB receptor for BDNF rescues neurogenesis and behavior in the Ts65Dn mouse model of DS” (ALMA MATER STUDIORUM—Universita' di Bologna, priority 2017, dated 2021).

Tests used:
Format in all cases: in vivo, mouse
[1] = tested on: dendritic spines of granule neurons; assay: Golgi staining: dendritic spine density of granule cells; details: 5.0 mg/kg P3-P15
Description: Euploid and Ts65Dn mice received a daily subcutaneous injection (at 9-10 am) of 7,8-DHF (5.0 mg/kg in vehicle: PBS with 1% DMSO) or vehicle from postnatal day 3 (P3) to postnatal day 15. This timing was chosen because it corresponds to that previously used to test the effects of fluoxetine and other pharmacotherapies in the neonate Ts65Dn mouse (Bianchi et al., 2010b; Giacomini et al., 2015; Stagni et al., 2016). Mice that received 7,8-DHF will be called “treated mice” (treated euploid mice: n=25; treated Ts65Dn mice: n=15). Mice that received the vehicle will be called “untreated mice” (untreated euploid mice: n=35; untreated Ts65Dn mice: n=21). […] The brains were excised and cut along the midline. […]
In Golgi-stained sections from the DG of P15 mice, spines of granule cells were counted using a 100× oil immersion objective lens (1.4 NA). […] For each neuron, 2-3 segments were analyzed in the outer and inner half of the molecular layer, respectively. For each animal, spines were counted in at least 8 neurons. The length of each sampled dendritic segment was determined by tracing its profile and the number of spines was counted manually. The linear spine density was calculated by dividing the total number of spines by the length of the dendritic segment. Spine density was expressed as number of spines per 100 μm dendrite.

Ts65Dn and euploid mice = assay: Morris Water Maze, probe test
BDNF = assay: Western blot of hippocampal homogenates: BDNF
Description: (§1) Euploid and Ts65Dn mice received a daily subcutaneous injection (at 9-10 am) of 7,8-DHF (5.0 mg/kg in vehicle: PBS with 1% DMSO) or vehicle from postnatal day 3 (P3) to postnatal day 15. This timing was chosen because it corresponds to that previously used to test the effects of fluoxetine and other pharmacotherapies in the neonate Ts65Dn mouse (Bianchi et al., 2010b; Giacomini et al., 2015; Stagni et al., 2016). Mice that received 7,8-DHF will be called “treated mice” (treated euploid mice: n=25; treated Ts65Dn mice: n=15). Mice that received the vehicle will be called “untreated mice” (untreated euploid mice: n=35; untreated Ts65Dn mice: n=21). […] The brains were excised and cut along the midline. The left hemisphere of a group of mice was fixed by immersion in PFA 4% and frozen, and the left hemisphere of another group of mice was used for Golgi staining. […]
(§2) In homogenates of the hippocampal formation of P15 mice, total proteins were obtained as previously described (Trazzi et al., 2011) and the levels of the following proteins were evaluated: BDNF, TrkB full length (TrkB-FL), phosphorylated TrkB (p-TrkB), the truncated form 1 of the TrkB receptor (TrkB-T1), phosphorylated ERK1 (p-ERK1), phosphorylated ERK2 (p-ERK2), ERK1, ERK2, synaptophysin (SYN), GAPDH and α-Tubulin using the antibodies reported in Table 1. […]

[2] = tested on: TrkB receptor (TrkB-FL, p-TrkB-FL, TrkB-T1); assay: Western blot of hippocampal homogenates: TrkB receptors
Description: Euploid and Ts65Dn mice received a daily subcutaneous injection (at 9-10 am) of 7,8-DHF (5.0 mg/kg in vehicle: PBS with 1% DMSO) or vehicle from postnatal day 3 (P3) to postnatal day 15. This timing was chosen because it corresponds to that previously used to test the effects of fluoxetine and other pharmacotherapies in the neonate Ts65Dn mouse (Bianchi et al., 2010b; Giacomini et al., 2015; Stagni et al., 2016). Mice that received 7,8-DHF will be called “treated mice” (treated euploid mice: n=25; treated Ts65Dn mice: n=15). Mice that received the vehicle will be called “untreated mice” (untreated euploid mice: n=35; untreated Ts65Dn mice: n=21). […] The brains were excised and cut along the midline. The left hemisphere of a group of mice was fixed by immersion in PFA 4% and frozen, and the left hemisphere of another group of mice was used for Golgi staining. The right hemispheres of all mice was kept at −80° C. and used for western blotting.
In homogenates of the hippocampal formation of P15 mice, total proteins were obtained as previously described (Trazzi et al., 2011) and the levels of the following proteins were evaluated: BDNF, TrkB full length (TrkB-FL), phosphorylated TrkB (p-TrkB), the truncated form 1 of the TrkB receptor (TrkB-T1), phosphorylated ERK1 (p-ERK1), phosphorylated ERK2 (p-ERK2), ERK1, ERK2, synaptophysin (SYN), GAPDH and α-Tubulin using the antibodies reported in Table 1. Densitometric analysis of digitized images with ChemiDoc XRS+ was performed with Image Lab software (Bio-Rad Laboratories, Hercules, Calif., USA) and intensity for each band was normalized to the intensity of the corresponding GAPDH or α-Tubulin band.

synaptophysin (SYN) = assay: Western blot of hippocampal homogenates: synaptophysin
Description: as §1, §2

[3] = tested on: proliferating cells in the SGZ; assay: Prenatal treatment: BrdU-positive cells in the SGZ of P2 mice
Description: Conception was determined by examining the vaginal plug. […] After sacrifice, brain was excised and weighed.
One of 20 sections (n=8-10) from the beginning to the end of the hippocampal formation were subjected to double-fluorescence immunohistochemistry for BrdU and NeuN. Sections were incubated overnight at 4° C. with a primary antibody, rat monoclonal anti-BrdU antibody (AbD Serotec), diluted 1:100 in 0.1% Triton X-100 in PBS and either mouse monoclonal anti-NeuN (Millipore Bioscience Research Reagents) diluted 1:400 in 0.1% Triton X-100 in PBS. Sections were then washed in 0.1% Triton X-100 in PBS for 40 min and incubated for 2 h with a Cy3-conjugated anti-rat IgG (1:200; Jackson Immunoresearch) secondary fluorescent antibody for BrdU immunohistochemistry and FITC-conjugated anti-mouse IgG (1:200; Jackson Immunoresearch) for NeuN immunohistochemistry.
BrdU-positive cells were sampled in the caudal subventricular zone (SVZ) of the lateral ventricle overlying the dentate gyrus and from the subgranular zone (SGZ) of the dentate gyrus (FIG. 10A). The caudal SVZ is the region that stretches from the beginning to the end of the hippocampal formation (BC: 3.27-4.84 mm). Since different regions of the ventricular zone (VZ) and SVZ give origin to neurons destined to different telecephalic areas (Brazel et al., 2003), we evaluated the effects of treatment both in the dorsal and lateral part of the SVZ (FIG. 10B). For cell counting, an area was traced enclosing the whole SVZ and all cells in this area were counted. While at later life stages, neural progenitor cells are only present in the SGZ of the dentate gyrus, in P2 pups proliferating cells can be detected in the perspective molecular layer and hilus. Therefore, cells were counted within a manually-traced area enclosing the whole dentate gyrus (FIG. 10B). […] Quantification of BrdU-labeled nuclei was conducted in every 20th section. The total number of BrdU labeled cells in the SVZ and SGZ was estimated by multiplying the number counted in the sampled sections by the inverse of the section sampling fraction (ssf= 1/20).

[4] = Ts65Dn mice, became similar to untreated euploid mice

O=c1cc(-c2ccccc2)oc2c(O)c(O)ccc12 [7,8-DHF, 7,8-dihydroxyflavone]
spine density of granule neurons ([1]; P15 Ts65Dn mice): became similar to that of euploid mice
spine density of granule neurons ([1]; P15 euploid mice): no effect on spine density
percentage of time spent at the periphery (probe test) (Ts65Dn and euploid mice; Ts65Dn mice): reduced in comparison with their untreated counterparts
frequency of entrances in the former quadrant (Ts65Dn and euploid mice; [4]): notable increase in the frequency
latency to enter the former platform zone (Ts65Dn and euploid mice; [4]): notable reduction in their latency
proximity to the former platform position (Ts65Dn and euploid mice; [4]): swam closer to the former platform zone
percentage of time spent in quadrants (Ts65Dn and euploid mice; Ts65Dn mice, vs SE quadrant only marginally significant): significantly more time in the former platform quadrant in comparison with the NE quadrant
frequency of entrances in the former quadrant (Ts65Dn and euploid mice; euploid mice): large increase in the frequency of entrances
percentage of time spent at the periphery (probe test) (Ts65Dn and euploid mice; euploid mice, treated vs. untreated): reduction in the percentage of time at the periphery
percentage of time spent in quadrants (Ts65Dn and euploid mice; euploid mice, vs NE and SE quadrants): significantly more time in the former platform quadrant
BDNF levels in the hippocampus (BDNF; P15 Ts65Dn mice, statistically significant): reduction in BDNF levels
BDNF levels in the hippocampus (BDNF; P15 euploid mice, not statistically significant): reduction in BDNF levels
levels of p-TrkB-FL ([2]; P15, both genotypes (euploid and Ts65Dn)): increase in the levels of p-TrkB-FL
levels of TrkB-FL ([2]; P15 Ts65Dn mice): reduction in the levels of TrkB-FL
levels of TrkB-T1 ([2]; P15 Ts65Dn mice, vs untreated counterparts and untreated euploid mice): reduction in the levels of TrkB-T1
SYN levels in the hippocampus (synaptophysin (SYN); P15 Ts65Dn mice, became similar to untreated euploid mice): increased SYN levels
SYN levels in the hippocampus (synaptophysin (SYN); P15 euploid mice, vs untreated counterparts): increase in SYN levels
total number of BrdU-positive cells in the SGZ, treated Ts65Dn vs untreated euploid mice ([3]; P2, treated E10-E20/21): no differences in total number of BrdU-positive cells
total number of BrdU-positive cells in the SGZ ([3]; P2 Ts65Dn mice, dams 5 mg/kg s.c. E10-E20/21, untreated Ts65Dn approx. 12850, euploid approx. 17500): approximately 16800
increase in cell number in the SGZ vs untreated Ts65Dn ([3]; P2 Ts65Dn mice, treated E10-E20/21): +30%
